From patent US20130012577A1, “PROCESS TO OBTAIN A STANDARDIZED EXTRACT OF QUERCETIN AND 3-O-METHYLQUERCETIN FROM INFLORESCENCES OF MACELA-DO-CAMPO, A COSMETIC, PHARMACEUTICAL AND VETERINARY COMPOSITION CONTAINING EXTRACT OF MACELA-DO-CAMPO, THE USE OF THIS EXTRACT AND THE METHOD OF APPLICATION OF THE AFORESAID EXTRACT” (priority 2009, published 2013)
≈ marks a conversion by molar mass, not a printed value.

Key:
P. acnes = assay: Bioautography of Propionibacterium acnes (HPTLC separation, inoculum overlay); format: cell-based; settings: incubation 72 hours, revealed with TTC
Experimental: Bioautographic trials were conducted to determine the classes of the compounds present in the extract of inflorescence of Achyrocline satureioides that perform the anti-bacterial activity against Propionibacterium acnes. The bioautography consists of the chromatographic separation of the compounds by HPTLC and the subsequent application of the inoculation to the culture medium over the chromatographic plate.

PDE 5A = PDE 5A (Homo sapiens, UniProt O76074); settings: cited from earlier work
PDE3 = settings: cited from earlier work
PDE4 = settings: cited from earlier work
[1] = tested on: smooth muscle of guinea pig corpus cavernosum; settings: cited from earlier work
[2] = tested on: smooth muscle of guinea pig tracheas; settings: guinea pig tracheas precontracted with histamine, carbachol, KCl and forskolin; cited from earlier work
[3] = Antioxidant activity by DPPH; format: biochemical
Experimental: Tests were performed for the antioxidant activity by DPPH of the dried extract of macela-do-campo obtained by spray dryer. […] Trolox (a derivative of vitamin E sold by Hoffman LaRoche) was used as a standard of the aforesaid test and has its IC50 of antioxidant activity obtained with 0.005 mg/ml. Therefore, it can be concluded that the dried extract of macela-do-campo has extremely high antioxidant effectiveness, only 4 times less than Trolox.

Propionibacterium acnes = assay: Minimum Inhibitory Concentration (MIC), microplate dilution; format: cell-based; settings: Cutibacterium acnes, anaerobiosis, 35° C., 96 hours, mg/ml of sample
Experimental: Tests were carried out for evaluating the minimum inhibitory concentrations of 3 batches of the dried extract of inflorescences of macela-do-campo produced in accordance with the process of the present invention against Propionibacterium acnes.
The procedure used for this test is the following:
Preparation of inoculum: the microorganism to be used in testing was replicated to a glass flask containing 10 ml of sterilized culture medium broth (TSB); • the flaks were incubated at 35° C.+/−2° C. for 24 hours; • the above procedure was repeated for 2 consecutive days; • 100 microliters of TSB broth were distributed in a microplate with the exception of column 1; • column 1 was inoculated with 200 microliters of the sample to be tested previously prepared and solubilized; • dilutions were carried out by transferring 100 microliters of column 1 to column 2 and 100 microliters of column 2 to column 3 and thus successively until column 10. […] The plate in which Propionibacterium acnes was inoculated was incubated under anaerobosis at 35° C.+/−2° C. for 96 hours; • after the incubation period the reading was carried out, thus observing the turbidity of the wells; • the samples were weighed and diluted in the vehicle ethanol 96° GL/distilled water (1:1) according to the weights and volumes below: […]

In the case of `COc1c(-c2ccc(O)c(O)c2)oc2cc(O)cc(O)c2c1=O` [3-O-methylquercetin], the “anti-microbial activity in bioautography (inhibition halos)” value (P. acnes) is listed as “main ingredients responsible for the anti-microbial activity”, the IC50 (PDE 5A) is listed as 86.9 µM and the IC50 (PDE3) is listed as 1.6 µM. For the same compound, the IC50 (PDE4) was 28.5 µM, the “relaxant activity in smooth muscle of corpus cavernosum” value [1] was “show the same relaxant activity” and the “relaxation of smooth muscle of tracheas” value [2] was “capable of provoking the relaxation of the smooth muscle”.
For `Cc1c(C)c2c(c(C)c1O)CCC(C)(C(=O)O)O2` (centres unmarked) [Trolox], the “IC50 of the antioxidant activity” value [3] was 5 µg/mL.
For `O=c1c(O)c(-c2ccc(O)c(O)c2)oc2cc(O)cc(O)c12` [quercetin], the MIC (Propionibacterium acnes) is listed as 36.4 µg/mL (≈ 120 µM), the “anti-microbial activity in bioautography (inhibition halos)” value (P. acnes) is listed as “main ingredients responsible for the anti-microbial activity” and the IC50 (PDE 5A) is listed as 1.9 µM. For the same compound, the “relaxant activity in smooth muscle of corpus cavernosum” value [1] was “show the same relaxant activity”.
